What all share (assay): NCI tumour cell line growth inhibition, 48 h
Test [1] concerns A549 NSCLC.
Test [2] concerns DU-145 prostate.
Test [3] concerns HL-60(TB) leukemia.
The test system of test [4] is HOP-62 NSCLC.
Test [5] has as its system MCF7 breast.
Test [6] has as its system MDA-MB-231 breast.
In test [7] the test system is OVCAR-8 ovarian.
The subject of test [8] is SW-620 colon.
Test [9] concerns UACC-62 melanoma.
The test system of test [10] is UO-31 renal.

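A five-concentration, 48-hour dose response in 96-well plates underlies each endpoint, interpolated linearly between surrounding concentrations. At the TGI there is no net growth.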

For `COC(=O)C1=C(O)C(C(=O)OC)[C@@]2(O)[C@@H](C(=O)OC)C(c3ccc(OC(=O)/C(=C/c4ccc(Cl)cc4)c4ccc(Cl)cc4)cc3)C[C@@H]1[C@@H]2C(=O)OC` (stereo not given in full), the TGI in test [1] was more than 100 µM; in test [2] it was more than 100 µM; in test [3] it was more than 100 µM; in [4] it was more than 100 µM; in [5] it was more than 100 µM; in test [6] it was 82.8 µM. Further, the TGI in test [7] was more than 100 µM; in [8] it was more than 100 µM; in [9], 24 µM; in test [10], 34.1 µM.

In the case of `CC(=O)O[C@H]1C#C/C=C\C#CC[C@@H]2C(=O)N(C(=O)OC(C)(C)C)[C@@H]12`, the TGI was more than 100 µM in [1]; 54.8 µM in test [2]; 25.6 µM in test [3]; 39.6 µM in [4]; more than 100 µM in [5]; more than 100 µM in test [6]. In addition, the TGI is more than 82.3 µM in test [7], more than 100 µM in [8], more than 100 µM in [9] and 31.2 µM in test [10].

Consider `Cc1cc2ccccc2n1CC(=O)NCC(C)C`, for which the TGI in test [1], in [2], in test [3], in [4], in [5] and in test [6] was more than 100 µM in each case. Also, the TGI in test [7], in test [8], in test [9] and in [10] was more than 100 µM in each case.

In the case of `COc1ccc(C(O)c2ccc3c(c2)OCO3)cc1` (stereo not given), the TGI in test [1], in test [2], in test [3], in [4], in test [5] and in test [6] was more than 100 µM throughout. Also, the TGI in [7], in [8], in test [9] and in test [10] was more than 100 µM each time.

With `CC(=O)/C=C/C=C(\C)CC/C=C(\C)CC(C)C`, the TGI in test [1] was more than 100 µM; in test [2], more than 100 µM; in test [3], 33.4 µM; in [4], more than 100 µM; in [5], 57.9 µM; in test [6] it was more than 100 µM. The TGI in [7] was 65.8 µM; in test [8], 35.3 µM; in test [9], 49.2 µM; in test [10], more than 100 µM.

Consider `O=C(O)C(CCc1ccccn1)c1ccccc1` (stereo not given), for which the TGI in [1], in test [2], in test [3], in test [4], in test [5] and in test [6] was more than 100 µM throughout. Further, the TGI in [7], in [8], in test [9] and in [10] was more than 100 µM throughout.

As for `CN(CCc1ccc(Cl)c(Cl)c1)[C@H]1CCCC[C@H]1N1CCCC1`, the TGI in test [1], in test [2], in test [3], in test [4], in [5] and in test [6] was more than 100 µM each time. In addition, the TGI in test [7], in [8], in test [9] and in [10] was more than 100 µM in each case.

For `Cc1ccc(C(=O)N(C(C)C)C(C)C)cc1N=NN(C)C`, the TGI in [1], in [2], in test [3], in [4], in [5] and in test [6] was more than 100 µM in each case. For the same compound, the TGI in test [7], in test [8], in [9] and in test [10] was more than 100 µM each time.

For `Nc1ccc2c(c1)C(=O)c1ccccc1-2`, the TGI in test [1], in test [2], in [3], in [4], in test [5] and in [6] was more than 100 µM throughout. Also, the TGI in [7], in test [8], in [9] and in test [10] was more than 100 µM throughout.

Take `CC[C@]12C=CCN3CCC4(c5cc(N=Nc6ccccc6)c(OC)cc5N(C)[C@H]4[C@@](O)(C(=O)OC)[C@@H]1OC(C)=O)[C@@H]32` (stereo not given in full): the TGI in test [1] came out at 40.9 µM; in test [2] it was 34.9 µM; in test [3], 38.1 µM; in [4] it was 35.2 µM; in test [5], 34.4 µM; in [6], 31.6 µM. Also, the TGI in test [7] came out at 42.2 µM; in test [8], 58.7 µM; in test [9], 29.4 µM; in [10], 29.8 µM.

Regarding `CCCCCc1cc2c(cc1O)CC[C@@H]1[C@@H]2CC[C@]2(C)[C@@H](O)CC[C@@H]12`, the TGI in test [1] amounted to 37.9 µM; in test [2] it was 31.4 µM; in test [3], 41.4 µM; in test [4], 41.7 µM; in [5], 40.2 µM; in test [6], 33.3 µM. Moreover, the TGI in [7] is 43 µM; in [8], 46.4 µM; in test [9] it was 35.4 µM; in [10], 28.4 µM.

On to `Nc1nc(Cl)cc(N=Nc2ccccc2)n1`, for which the TGI in test [1] is more than 100 µM; in test [2] it was more than 100 µM; in test [3] it was 75 µM; in test [4], 60.1 µM; in test [5], more than 100 µM; in test [6] it was more than 100 µM. The TGI in [7] was 97.6 µM; in [8], more than 100 µM; in test [9], more than 100 µM; in [10], more than 100 µM.

On to `O=C(CC(O)(C(F)(F)F)C(F)(F)F)C(CCCl)C(O)(C(F)(F)F)C(F)(F)F` (stereo not given), for which the TGI in [1] was more than 100 µM; in test [2], more than 100 µM; in [3], 86.5 µM; in test [4], more than 100 µM; in test [5], more than 100 µM; in test [6], more than 100 µM. For the same compound, the TGI in [7] is 83.9 µM; in [8], more than 100 µM; in [9], more than 100 µM; in test [10], 73.3 µM.

The values above are taken from PubChem BioAssay (NCI).
